Assay results from PMC5515969, “Effects of 31 FDA approved small-molecule kinase inhibitors on isolated rat liver mitochondria” (Archives of Toxicology, 2016).
Like-named read-outs stand apart in the source and are kept apart here.

How the values were obtained:
[1] = cited from earlier work
[2] = test system: isolated rat liver mitochondria; experiment: Mitochondrial oxygen consumption (glutamate/malate or succinate driven, state 4 and state 3); format: biochemical; conditions: DMSO treated samples set as 1; on State 3 respiration driven by succinate at 10XCmax: key: 0 indicates that the drug had no effects (negative); on State 3 respiration driven by succinate at 1XCmax: key: 0 indicates that the drug had no effects (negative)
In short: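 Rat liver mitochondria (1 mg/ml protein) exposed 5 min to kinase inhibitors in 0.1% DMSO, then O2 consumption measured by Clark-type electrode with glutamate/malate or succinate (state 4), ADP added after 3 min (state 3). Rates normalized to 0.1% DMSO controls set to 1.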

[3] = read-out: Cmax at µM; human therapeutic maximal blood concentration; ref product labeling; cited from earlier work
[4] = test system: isolated rat liver mitochondria; experiment: Mitochondrial ROS production (CM-H2DCFDA); conditions: DMSO treated samples set as 1
[5] = test system: RCC IV; experiment: RCC IV activity in submitochondrial particles; format: biochemical, rat; parameters: key to RCC IV at 50XCmax / RCC IV at 100XCmax: activity relative to DMSO-treated controls (control set as 1 = 100%); conditions: 50XCmax; DMSO treated samples set as 1; in %
In short: (§1)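 Kinase inhibitors were preincubated 15 min with submitochondrial particles (1 mg/ml) before complex activities were measured. RCC I was the rotenone-sensitive portion (activity without minus with rotenone). RCC I/V was read at 340 nm and RCC II at 600 nm every 1 min for 6 min. RCC III and IV were read at 550 nm every 10 s for 2 min. Activities are normalized to DMSO controls set as 1.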

[6] = test system: isolated rat liver mitochondria; experiment: Mitochondrial swelling (absorbance at 535 nm); format: biochemical; conditions: difference in signal between KI and DMSO treated samples at the end of experiments; on Swelling 5XCmax: key: 0 indicates that the drug had no effects (negative)
[7] = test system: RCC III; experiment: RCC III activity in submitochondrial particles; format: biochemical, rat; parameters: key to RCC III at 100XCmax: activity relative to DMSO-treated controls (control set as 1 = 100%); conditions: 100XCmax
In short: as §1

[8] = test system: isolated rat liver mitochondria; experiment: Mitochondrial inner membrane potential (MMP), Rhodamine 123; format: biochemical; conditions: difference in signal between KI and DMSO treated samples at the end of experiments
Description: Fig. 3 KI effects on mitochondrial inner membrane potential (MMP). […] In a, c, data are means and standard derivations from three separate experiments. *p < 0.05 as compared to DMSO-treated samples at the end of experiments. In b, data are means of two independent experiments

[9] = test system: isolated rat liver mitochondria; conditions: positive control alamethicin treated samples

O=C(c1ccc(F)c(F)c1Nc1ccc(I)cc1F)N1CC(O)([C@@H]2CCCCN2)C1 [Cobimetinib]
DILI potential (based on labeling) ([1]; 1 DILI positive, 0 negative according to labeling, ref product labeling): 1 | Labeling for DILI ([1]; BBW: black box warning, W&P: Warnings and Precautions, ref product labeling): W&P: ALT↑ | labeling for DILI ([1]; W&P warnings and precautions, BBW black box warnings, ref FDA product labeling): W&P: ALT↑/monitoring | DILI potential (based on labeling) ([1]; ref FDA product labeling): 1 | State 3 respiration driven by glutamate/malate at 1XCmax ([2]; 1XCmax): 0 | State 3 respiration driven by succinate at 1XCmax ([2]; 1XCmax): 0 | State 4 respiration driven by glutamate/malate at 1XCmax ([2]; 1XCmax): 0 | State 4 respiration driven by succinate at 1XCmax ([2]; 1XCmax): 0 | State 3 respiration driven by glutamate/malate at 2.5XCmax ([2]; 2.5XCmax): 0 | State 3 respiration driven by succinate at 2.5XCmax ([2]; 2.5XCmax): 0 | State 4 respiration driven by glutamate/malate at 2.5XCmax ([2]; 2.5XCmax): 0 | State 4 respiration driven by succinate at 2.5XCmax ([2]; 2.5XCmax): 0 | State 3 respiration driven by glutamate/malate at 5XCmax ([2]; 5XCmax): 0 | State 3 respiration driven by succinate at 5XCmax ([2]; 5XCmax): 0 | State 4 respiration driven by glutamate/malate at 5XCmax ([2]; 5XCmax): 0 | State 4 respiration driven by succinate at 5XCmax ([2]; 5XCmax): 0 | State 3 respiration driven by glutamate/malate at 10XCmax ([2]; 10XCmax): 0 | State 3 respiration driven by succinate at 10XCmax ([2]; 10XCmax): 0 | State 4 respiration driven by glutamate/malate at 10XCmax ([2]; 10XCmax): 0 | State 4 respiration driven by succinate at 10XCmax ([2]; 10XCmax): 0 | State 3 respiration driven by glutamate/malate at 20XCmax ([2]; 20XCmax): 0 | State 3 respiration driven by succinate at 20XCmax ([2]; 20XCmax): 0 | State 4 respiration driven by glutamate/malate at 20XCmax ([2]; 20XCmax): 0 | State 4 respiration driven by succinate at 20XCmax ([2]; 20XCmax): 0 | State 3 respiration driven by glutamate/malate at 30XCmax ([2]; 30XCmax): 0 | State 3 respiration driven by succinate at 30XCmax ([2]; 30XCmax): 0 | State 4 respiration driven by glutamate/malate at 30XCmax ([2]; 30XCmax): 0 | State 4 respiration driven by succinate at 30XCmax ([2]; 30XCmax): 0 | State 3 respiration driven by glutamate/malate at 50XCmax ([2]; 50XCmax): 0 | State 3 respiration driven by succinate at 50XCmax ([2]; 50XCmax): 0 | State 4 respiration driven by glutamate/malate at 50XCmax ([2]; 50XCmax): 0 | State 4 respiration driven by succinate at 50XCmax ([2]; 50XCmax): 0 | State 3 respiration driven by glutamate/malate at 100XCmax ([2]; 100XCmax): 0 | State 3 respiration driven by succinate at 100XCmax ([2]; 100XCmax): 0 | State 4 respiration driven by glutamate/malate at 100XCmax ([2]; 100XCmax): 0 | State 4 respiration driven by succinate at 100XCmax ([2]; 100XCmax): 0 | Cmax [3]: 0.51 µM | ROS measured by CM-H2DCFDA at 1XCmax ([4]; 1XCmax): 0 | ROS measured by CM-H2DCFDA at 2.5XCmax ([4]; 2.5XCmax): 0 | ROS measured by CM-H2DCFDA at 5XCmax ([4]; 5XCmax): 0 | ROS measured by CM-H2DCFDA at 10XCmax ([4]; 10XCmax): 0 | ROS measured by CM-H2DCFDA at 20XCmax ([4]; 20XCmax): 0 | ROS measured by CM-H2DCFDA at 30XCmax ([4]; 30XCmax): 0 | ROS measured by CM-H2DCFDA at 50XCmax ([4]; 50XCmax): 0 | ROS measured by CM-H2DCFDA at 100XCmax ([4]; 100XCmax): 0 | RCC IV at 50XCmax [5]: 0 | Swelling 1XCmax ([6]; 1XCmax): 0 | Swelling 2.5XCmax ([6]; 2.5XCmax): 0 | Swelling 5XCmax ([6]; 5XCmax): 0 | Swelling 10XCmax ([6]; 10XCmax): 0 | Swelling 20XCmax ([6]; 20XCmax): 0 | Swelling 30XCmax ([6]; 30XCmax): 0 | Swelling 50XCmax ([6]; 50XCmax): 0 | Swelling 100XCmax ([6]; 100XCmax): 0 | RCC III at 100XCmax [7]: 0 | MMP measured by Rhodamine 123 at 1XCmax ([8]; 1XCmax): 0 | MMP measured by Rhodamine 123 at 2.5XCmax ([8]; 2.5XCmax): 0 | MMP measured by Rhodamine 123 at 5XCmax ([8]; 5XCmax): 0 | MMP measured by Rhodamine 123 at 10XCmax ([8]; 10XCmax): 0 | MMP measured by Rhodamine 123 at 20XCmax ([8]; 20XCmax): 0 | MMP measured by Rhodamine 123 at 30XCmax ([8]; 30XCmax): 0 | MMP measured by Rhodamine 123 at 50XCmax ([8]; 50XCmax): 0 | MMP measured by Rhodamine 123 at 100XCmax ([8]; 100XCmax): 0 | Cytochrome c release 1XCmax ([9]; 1XCmax): 0 | Cytochrome c release 2.5XCmax ([9]; 2.5XCmax): 0 | Cytochrome c release 5XCmax ([9]; 5XCmax): 0 | Cytochrome c release 10XCmax ([9]; 10XCmax): 0 | Cytochrome c release 20XCmax ([9]; 20XCmax): 0 | Cytochrome c release 30XCmax ([9]; 30XCmax): 0 | Cytochrome c release 50XCmax ([9]; 50XCmax): 0 | Cytochrome c release 100XCmax ([9]; 100XCmax): 0
